From patent US9790231B2 (LUPIN LIMITED, priority 2013, dated 2017)
Where a name gives a salt, the structure may show the parent alone.

System: IL-2 secretion by Jurkat T cells
Assay: Inhibition of IL-2 secretion (PHA-stimulated Jurkat T cells, ELISA)
Type: cell-based
Settings: Homo sapiens, 20 to 24 hours
Experimental: The CRAC channel modulatory activity of the compounds were thus evaluated by measuring the secretion of IL-2 by antigen stimulated T-cells in vitro. Alternatively, such activity can also be evaluated by assay methods known to one skilled in the art.
Inhibition of IL-2 secretion: Jurkat T cells were seeded at a density of 0.5 to 1 million cells per well in RPMI medium. Test compounds from this invention were added to the cells at different concentrations. This was followed by the addition of PHA, a T cell mitogen after 10 minutes. The cells were then incubated for 20 to 24 hours in a CO2 incubator at 37° C. After incubation with the compounds, cells were centrifuged; the supernatant was collected and processed for ELISA to quantitate the amount of IL-2 secreted. A commercial ELISA kit (R&D Systems, Inc. Minneapolis, Minn., USA) was used to estimate the IL-2 concentrations. Amount of IL-2 secreted by cells stimulated with PHA was considered as a 100% maximal signal and the decrease in amount of IL-2 secreted by cells treated with the test compounds was expressed as percent inhibition of the maximal signal. The dose response data was analyzed using 4-parametric sigmoidal dose response (variable slope) curve-fit.

Structure (SMILES)	IC50
CCc1cc2c(cc1-c1ccc(C(=O)Nc3c(F)cncc3F)cc1)OC(C)(C)CC2 [Example 49, N-(3,5-Difluoropyridin-4-yl)-4-(6-ethyl-2,2-dimethylchroman-7-yl)benzamide]	< 25 nM
Cc1cc2c(cc1-c1ccc(NCc3c(F)cccc3F)nc1)OC(C)(C)CC2=O [Example 35, 7-(6-((2,6-Difluorobenzyl)amino)pyridin-3-yl)-2,2,6-trimethylchroman-4-one]	< 25 nM
CCc1cc2c(cc1-c1ccc(NC(=O)c3c(F)cccc3F)cc1)OC1(COC1)CC2=O [Example 125, N-(4-(6-Ethyl-4-oxospiro[chroman-2,3′-oxetan]-7-yl)phenyl)-2,6-difluorobenzamide]	< 25 nM
Cc1cc2c(cc1-c1ccc(C(=O)Nc3c(F)cncc3F)cc1)OC1(CCC1)CC2 [Example 66, N-(3,5-Difluoropyridin-4-yl)-4-(6-methylspiro[chroman-2,1′-cyclobutan]-7-yl)benzamide]	< 25 nM
CC1(C)CC(c2ccc(NC(=O)c3c(F)cccc3F)cc2)c2ccccc2O1 (stereo not drawn) [Example 80, N-(4-(2,2-Dimethylchroman-4-yl)phenyl)-2,6-difluorobenzamide]	100 to 500 nM
Cc1cc2c(cc1-c1ccc(C(=O)Nc3c(F)cncc3F)cc1)OC1(CCC1)CC2=O [Example 64, N-(3,5-Difluoropyridin-4-yl)-4-(6-methyl-4-oxospiro[chroman-2,1′-cyclobutan]-7-yl)benzamide]	< 25 nM
COCC1(C)C=C(c2ccc(NC(=O)c3c(F)cccc3F)cn2)c2cccc(C)c2O1 (stereo not drawn) [Example 105, 2,6-Difluoro-N-(6-(2-(methoxymethyl)-2,8-dimethyl-2H-chromen-4-yl)pyridin-3-yl)benzamide]	100 to 500 nM
Cc1cc2c(cc1-c1ccc(NCc3c(F)cccc3F)cc1)OC1(CCC1)CC2=O [Example 21, 7-(4-((2,6-Difluorobenzyl)amino)phenyl)-6-methylspiro[chroman-2,1′-cyclobutan]-4-one]	25 to 50 nM
COC(=O)C1(C)CC(=O)c2cc(C)c(-c3cnc(NC(=O)c4c(F)cccc4F)cn3)cc2O1 (stereo not drawn) [Example 45, Methyl 7-(5-(2,6-difluorobenzamido)pyrazin-2-yl)-2,6-dimethyl-4-oxochroman-2-carboxylate]	100 to 500 nM
Cc1cc2c(cc1-c1ccc(NC(=O)c3c(F)cccc3Cl)cc1)OC1(CCC1)CC2=O [Example 11, 2-Chloro-6-fluoro-N-(4-(6-methyl-4-oxospiro[chroman-2,1′-cyclobutan]-7-yl)phenyl)benzamide]	25 to 50 nM
Cc1cc2c(cc1-c1ccc(C(=O)Nc3c(F)cncc3F)cc1)OC(C)(C)CC2 [Example 50, N-(3,5-Difluoropyridin-4-yl)-4-(2,2,6-trimethylchroman-7-yl)benzamide]	< 25 nM
Cc1cc2c(cc1-c1cnc(NC(=O)c3c(F)cccc3F)cn1)OC(C)(C)CC2=O [Example 4, 2,6-Difluoro-N-(5-(2,2,6-trimethyl-4-oxochroman-7-yl)pyrazin-2-yl)benzamide]	< 25 nM
Cc1cc2c(cc1-c1ccc(NC(=O)c3c(C)cccc3F)cc1)OC1(CCC1)CC2=O [Example 10, 2-Fluoro-6-methyl-N-(4-(6-methyl-4-oxospiro[chroman-2,1′-cyclobutan]-7-yl)phenyl)benzamide]	25 to 50 nM
COCC1(C)C=C(c2cnc(NC(=O)c3c(F)cccc3F)cn2)c2cccc(C)c2O1 (stereo not drawn) [Example 103, 2,6-Difluoro-N-(5-(2-(methoxymethyl)-2,8-dimethyl-2H-chromen-4-yl)pyrazin-2-yl)benzamide]	< 25 nM
Cc1cc2c(cc1-c1ccc(C(=O)Nc3c(Cl)cncc3Cl)cc1)OC1(CCC1)CC2 [Example 67, N-(3,5-Dichloropyridin-4-yl)-4-(6-methylspiro[chroman-2,1′-cyclobutan]-7-yl)benzamide]	25 to 50 nM
Cc1cc2c(cc1-c1ccc(NC(=O)c3c(F)cccc3F)cn1)OC(C)(C)CC2=O [Example 27, 2,6-Difluoro-N-(6-(2,2,6-trimethyl-4-oxochroman-7-yl)pyridin-3-yl)benzamide]	25 to 50 nM

More lines, now with the values ahead:

IC50	Structure (SMILES)
< 25 nM	CCc1cc2c(cc1-c1ccc(NC(=O)c3c(F)cccc3F)cc1)OC1(CCC1)CC2 [Example 24, N-(4-(6-Ethylspiro[chroman-2,1′-cyclobutan]-7-yl)phenyl)-2,6-difluorobenzamide]
25 to 50 nM	Cc1cc2c(cc1-c1ccc(NC(=O)c3c(F)cccc3F)cc1)OC1(CC2=O)CN(C)C1 [Example 121, N-(4-(1,6′-Dimethyl-4′-oxospiro[azetidine-3,2′-chroman]-7′-yl)phenyl)-2,6-difluorobenzamide]
< 25 nM	Cc1cc2c(cc1-c1ccc(NC(=O)c3c(F)cccc3F)cc1)OC1(CCC1)CC2 [Example 22, 2,6-Difluoro-N-(4-(6-methylspiro[chroman-2,1′-cyclobutan]-7-yl)phenyl)benzamide]
25 to 50 nM	O=C(Nc1ccc(C2=CC3(CCC3)Oc3ccccc32)cn1)c1c(F)cccc1F [Example 72, 2,6-Difluoro-N-(5-(spiro[chromene-2,1′-cyclobutan]-4-yl)pyridin-2-yl)benzamide]
< 25 nM	CCc1cc2c(cc1-c1ccc(NC(=O)c3c(F)cccc3F)cc1)OC(C)(C)CC2 [Example 48b, N-(4-(6-Ethyl-2,2-dimethylchroman-7-yl)phenyl)-2,6-difluorobenzamide]
100 to 500 nM	Cc1c(-c2ccc(NC(=O)c3c(F)cccc3F)cc2)ccc2c1OC1(CCC1)CC2=O [Example 19, 2,6-Difluoro-N-(4-(8-methyl-4-oxospiro[chroman-2,1′-cyclobutan]-7-yl)phenyl)benzamide]
50 to 100 nM	Cc1cc2c(cc1-c1ccc(NC(=O)c3c(F)cccc3F)cc1)OC1(CNC1)CC2=O [Example 120, 2,6-Difluoro-N-(4-(6′-methyl-4′-oxospiro[azetidine-3,2′-chroman]-7′-yl)phenyl)benzamide hydrochloride]
< 25 nM	Cc1c(-c2ccc(NC(=O)c3c(F)cccc3F)cc2)ccc2c1OC(C)(C)CC2 [Example 59, 2,6-Difluoro-N-(4-(2,2,8-trimethylchroman-7-yl)phenyl)benzamide]
25 to 50 nM	COCC1(C)C=C(c2ccc(NC(=O)c3c(F)cccc3F)cc2)c2cc(C)ccc2O1 (stereo not drawn) [Example 91]
25 to 50 nM	COCC1(C)C=C(c2ccc(NC(=O)c3c(F)cccc3F)cc2)c2ccccc2O1 (stereo not drawn) [Example 90]
50 to 100 nM	Cc1ccc2c(c1)C(c1cnc(NC(=O)c3c(F)cccc3F)cn1)=CC1(CCC1)O2 [Example 76, 2,6-Difluoro-N-(5-(6-methylspiro[chromene-2,1′-cyclobutan]-4-yl)pyrazin-2-yl)benzamide]
50 to 100 nM	Cc1cc2c(cc1-c1ccc(NC(=O)c3c(F)cccc3F)cc1)OC(C)(C)CC2N(C)C (stereo not drawn) [Example 62, N-(4-(4-(Dimethylamino)-2,2,6-trimethylchroman-7-yl)phenyl)-2,6-difluorobenzamide]
< 25 nM	Cc1cc2c(cc1-c1ccc(NCc3c(F)cccc3F)nc1)OC1(CCC1)CC2=O [Example 39, 7-(6-((2,6-Difluorobenzyl)amino)pyridin-3-yl)-6-methylspiro[chroman-2,1′-cyclobutan]-4-one]
< 25 nM	CCc1cc2c(cc1-c1ccc(NC(=O)c3c(F)cccc3F)cc1)OC1(CCC1)CC2=O [Example 20, N-(4-(6-Ethyl-4-oxospiro[chroman-2,1′-cyclobutan]-7-yl)phenyl)-2,6-difluorobenzamide]
50 to 100 nM	Cc1cc2c(cc1-c1ccc(NC(=O)c3c(F)cccc3F)cc1)CCC1(CCC1)O2 [Example 18, 2,6-Difluoro-N-(4-(7-methylspiro[chroman-2,1′-cyclobutan]-6-yl)phenyl)benzamide]
50 to 100 nM	Cc1ccc2c(c1)OC1(C=C2c2ccc(NC(=O)c3c(F)cccc3F)cc2)CCC1 [Example 77, 2,6-Difluoro-N-(4-(7-methylspiro[chromene-2,1′-cyclobutan]-4-yl)phenyl)benzamide]
100 to 500 nM	Cc1ccc2c(c1)C(c1ccc(NC(=O)c3c(F)cccc3F)nc1)=CC1(CCC1)O2 [Example 106, 2,6-Difluoro-N-(5-(6-methylspiro[chromene-2,1′-cyclobutan]-4-yl)pyridin-2-yl)benzamide]
25 to 50 nM	Cc1cc2c(cc1-c1ccc(NC(=O)c3c(F)cccc3F)nc1)OC1(COC1)CC2=O [Example 124, 2,6-Difluoro-N-(5-(6-methyl-4-oxospiro[chroman-2,3′-oxetan]-7-yl)pyridin-2-yl)benzamide]
25 to 50 nM	CC1(C)C=C(c2ccc(NC(=O)c3c(F)cccc3F)cc2)c2ccccc2O1 [Example 79, N-(4-(2,2-Dimethyl-2H-chromen-4-yl)phenyl)-2,6-difluorobenzamide]
25 to 50 nM	Cc1cc2c(cc1-c1ccc(NC(=O)c3c(C)cccc3F)cc1)OC1(CCC1)CC2 [Example 9, 2-Fluoro-6-methyl-N-(4-(6-methylspiro[chroman-2,1′-cyclobutan]-7-yl)phenyl)benzamide]
< 25 nM	Cc1cccc2c1OC1(C=C2c2cnc(NC(=O)c3c(F)cccc3F)cn2)CCC1 [Example 100, 2,6-Difluoro-N-(5-(8-methylspiro[chromene-2,1′-cyclobutan]-4-yl)pyrazin-2-yl)benzamide]
25 to 50 nM	Cc1cc2c(cc1-c1ccc(NC(=O)c3c(F)cccc3F)nc1)OC(C)(C)CC2=O [Example 6]
50 to 100 nM	Cc1ccc2c(c1)OC(C)(C)C=C2c1ccc(NC(=O)c2c(F)cccc2F)cc1 [Example 87, 2,6-Difluoro-N-(4-(2,2,7-trimethyl-2H-chromen-4-yl)phenyl)benzamide]
